Laboratory results reported in patent US10787436B2, “Inhibitors of cyclin-dependent kinase 7 (CDK7)” (Dana-Farber Cancer Institute, Inc., priority 2012, dated 2020).

Columns and labels:
THP-1 = assay: Proliferation assay, CellTiter-Glo, 72 hour; assay type: cell-based; conditions: Homo sapiens, THP-1, blood cancer cell line, read-out: Inhibition of proliferation, THP-1
MNNG-HOS Cl#5 = assay: Proliferation assay, CellTiter-Glo, 72 hour; assay type: cell-based; conditions: osteosarcoma cell line, read-out: Inhibition of proliferation, MNNG-HOS Cl#5
MV4-11 = assay: Proliferation assay, CellTiter-Glo, 72 hour; assay type: cell-based; conditions: Homo sapiens, MV4-11, blood cancer cell line, read-out: Inhibition of proliferation, MV4-11
SKBR3 = assay: Proliferation assay, CellTiter-Glo, 72 hour; assay type: cell-based; conditions: Homo sapiens, SK-BR-3, breast cancer cell line, read-out: Inhibition of proliferation, SKBR3
MDA-MB231 = assay: Proliferation assay, CellTiter-Glo, 72 hour; assay type: cell-based; conditions: Homo sapiens, MDA-MB-231, breast cancer cell line, read-out: Inhibition of proliferation, MDA-MB231
[1] = test system: patient-derived chronic lymphocytic leukemia (CLL) isolates; assay: Cell death of patient-derived CLL isolates, Annexin V staining, 24 hour; assay type: cell-based, human; conditions: Homo sapiens, read-out: Pro-death signaling, average EC50 values
Procedure: Clinical isolates of CLL were cultured with compounds of Formula (I) or flavopiridol and assessed for cell death after a 24 hour time course by Annexin V staining. […] Anti-proliferative effect was measured using cell titer glo analysis.
PBMCs freshly isolated from peripheral blood are seeded in 24 well plates at a volume of 0.5 ml and a concentration of 2×10^6 cells/ml. Compounds and controls are added to respective wells in a total volume of 2.5 μl. Plates are mixed gently and incubated approximately 24 hours at 37° C., 5% CO2. Apoptosis was measured in all cells from each well using the Annexin V: FITC Apoptosis Detection Kit I (BD Biosciences). Normalized % death was calculated as follows: [(% Dead Drug−% Dead DMSO)/(100%−% Dead DMSO)]×100

143B = assay: Proliferation assay, CellTiter-Glo, 72 hour; assay type: cell-based; conditions: Homo sapiens, 143B, osteosarcoma cell line, read-out: Inhibition of proliferation, 143B
SK-ES = assay: Proliferation assay, CellTiter-Glo, 72 hour; assay type: cell-based; conditions: Ewing's sarcoma cell line, read-out: Inhibition of proliferation, SK-ES
T47D = assay: Proliferation assay, CellTiter-Glo, 72 hour; assay type: cell-based; conditions: Homo sapiens, T47D, breast cancer cell line, read-out: Inhibition of proliferation, T47D
RD-ES = assay: Proliferation assay, CellTiter-Glo, 72 hour; assay type: cell-based; conditions: RD-ES, Ewing's sarcoma cell line, read-out: Inhibition of proliferation, RD-ES
Hs863T = assay: Proliferation assay, CellTiter-Glo, 72 hour; assay type: cell-based; conditions: Ewing's sarcoma cell line, read-out: Inhibition of proliferation, Hs863T
RS4-11 = assay: Proliferation assay, CellTiter-Glo, 72 hour; assay type: cell-based; conditions: Homo sapiens, RS4-11, blood cancer cell line, read-out: Inhibition of proliferation, RS4-11
Hs822T = assay: Proliferation assay, CellTiter-Glo, 72 hour; assay type: cell-based; conditions: Ewing's sarcoma cell line, read-out: Inhibition of proliferation, Hs822T
hTERT-HME1 = assay: Proliferation assay, CellTiter-Glo, 72 hour; assay type: cell-based; conditions: hTERT-HME1, immortalized normal mammary epithelial cell line, read-out: Inhibition of proliferation, hTERT-HME1
SAOS = assay: Proliferation assay, CellTiter-Glo, 72 hour; assay type: cell-based; conditions: osteosarcoma cell line, read-out: Inhibition of proliferation, SAOS
HL60 = assay: Proliferation assay, CellTiter-Glo, 72 hour; assay type: cell-based; conditions: Homo sapiens, HL-60, blood cancer cell line, read-out: Inhibition of proliferation, HL60
RNAP II occupancy = assay: RNAP II ChIP-seq in Jurkat cells; assay type: cell-based, human; conditions: 250 nM for 6 hours
Procedure: After the indicated treatment time, cells were crosslinked for 10 minutes at room temperature by the addition of one-tenth of the volume of 11% formaldehyde solution (11% formaldehyde, 50 mM Hepes (pH 7.3), 100 mM NaCl, 1 mM EDTA (pH 8.0), 0.5 mM EGTA (pH 8.0)) to the growth media followed by two washes with PBS. Following the final PBS wash, supernatant was aspirated, and the cell pellet was flash frozen in liquid nitrogen. Frozen crosslinked cells were stored at −80° C.
50 μl of Dynal magnetic beads (Sigma) were blocked with 0.5% BSA (w/v) in PBS. Magnetic beads were bound with 5 μg of the indicated antibody. Antibodies used are as follows: Total RNAP II (Rpb1 N-terminus): Santa Cruz sc-899; CDK7: Bethyl A300-405A. Crosslinked cells were lysed with lysis buffer 1 (50 mM Hepes (pH 7.3), 140 mM NaCl, 1 mM EDTA, 10% glycerol, 0.5% NP-40, and 0.25% Triton X-100) and washed with lysis buffer 2 (10 mM Tris-HCl (pH 8.0), 200 mM NaCl, 1 mM EDTA (pH 8.0) and 0.5 mM EGTA (pH 8.0)). […]
Illumina sequencing libraries were generated, and data were processed according to Lin et al., Cell (2012) 151:56-67. […] These criteria preserved only reads that mapped uniquely to the genome with 1 or fewer mismatches. […]

A673 = assay: Proliferation assay, CellTiter-Glo, 72 hour; assay type: cell-based; conditions: Homo sapiens, A673, Ewing's sarcoma cell line, read-out: Inhibition of proliferation, A673
MCF10A = assay: Proliferation assay, CellTiter-Glo, 72 hour; assay type: cell-based; conditions: Homo sapiens, MCF-10A, non-tumorigenic breast epithelial cell line, read-out: Inhibition of proliferation, MCF10A
MCF7 = assay: Proliferation assay, CellTiter-Glo, 72 hour; assay type: cell-based; conditions: Homo sapiens, MCF7, breast cancer cell line, read-out: Inhibition of proliferation, MCF7
CDK7 = CDK7 (Homo sapiens (Human), UniProt P50613); assay: Compound I-49 pull down from Loucy cellular lysates; assay type: binding; conditions: 1 μM, 4° C., 12 hours
CDK7, sequence (P50613 whole entry): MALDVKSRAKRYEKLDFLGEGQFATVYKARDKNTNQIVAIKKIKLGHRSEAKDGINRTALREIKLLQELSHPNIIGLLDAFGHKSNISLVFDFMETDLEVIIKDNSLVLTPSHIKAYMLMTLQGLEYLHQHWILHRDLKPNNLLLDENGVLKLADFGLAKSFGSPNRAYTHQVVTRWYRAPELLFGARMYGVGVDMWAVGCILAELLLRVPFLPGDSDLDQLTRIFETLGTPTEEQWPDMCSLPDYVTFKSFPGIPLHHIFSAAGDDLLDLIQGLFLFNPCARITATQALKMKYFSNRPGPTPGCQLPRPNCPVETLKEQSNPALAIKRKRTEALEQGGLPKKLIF
Procedure: Precipitated proteins were washed and probed for CDK7.
(§1) Following the treatment, the cells were washed 2-fold with cold PBS and then lysed in the following lysis buffer: 50 mM TrisHCl pH 8.0, 150 mM NaCl, 1% NP-40, 5 mM EDTA, 1 mM DTT, and protease/phosphatase cocktails. Following clearance, the lysates were treated with compound I-49 for pulldown (or CDK7 antibody for IP) overnight at 4° C. The lysates were then incubated with streptavidin agarose for pulldown (or Protein G Agarose for IP) for an additional 2-3 hours at 4° C. Agarose beads were washed 5 times with a lysis buffer and then boiled in 2X SDS for 10 minutes at 95° C.

[2] = test system: CDK1, CDK2, CDK4, and CDK6; assay: as above; assay type: binding
Procedure: (§2) However, cyclin K, which is known to bind to CDK12/13, did interact with I-49. […] Lysates were then probed with I-49. Precipitated proteins were washed and probed with antibodies as shown.
as §1

cyclin K = assay: as above; assay type: binding
Procedure: as §2, §1

Jurkat = Jurkat (proliferation, CellTiter-Glo); assay type: cell-based; conditions: Homo sapiens, Jurkat; read-out: Calculated IC50, Jurkat
MLK3 = MLK3 (Homo sapiens (Human), UniProt Q16584); assay: Life Technologies LanthaScreen Eu kinase assay, MLK3; assay type: binding; conditions: read-out: Calculated IC50, MLK3
MLK3, sequence (Q16584 whole entry): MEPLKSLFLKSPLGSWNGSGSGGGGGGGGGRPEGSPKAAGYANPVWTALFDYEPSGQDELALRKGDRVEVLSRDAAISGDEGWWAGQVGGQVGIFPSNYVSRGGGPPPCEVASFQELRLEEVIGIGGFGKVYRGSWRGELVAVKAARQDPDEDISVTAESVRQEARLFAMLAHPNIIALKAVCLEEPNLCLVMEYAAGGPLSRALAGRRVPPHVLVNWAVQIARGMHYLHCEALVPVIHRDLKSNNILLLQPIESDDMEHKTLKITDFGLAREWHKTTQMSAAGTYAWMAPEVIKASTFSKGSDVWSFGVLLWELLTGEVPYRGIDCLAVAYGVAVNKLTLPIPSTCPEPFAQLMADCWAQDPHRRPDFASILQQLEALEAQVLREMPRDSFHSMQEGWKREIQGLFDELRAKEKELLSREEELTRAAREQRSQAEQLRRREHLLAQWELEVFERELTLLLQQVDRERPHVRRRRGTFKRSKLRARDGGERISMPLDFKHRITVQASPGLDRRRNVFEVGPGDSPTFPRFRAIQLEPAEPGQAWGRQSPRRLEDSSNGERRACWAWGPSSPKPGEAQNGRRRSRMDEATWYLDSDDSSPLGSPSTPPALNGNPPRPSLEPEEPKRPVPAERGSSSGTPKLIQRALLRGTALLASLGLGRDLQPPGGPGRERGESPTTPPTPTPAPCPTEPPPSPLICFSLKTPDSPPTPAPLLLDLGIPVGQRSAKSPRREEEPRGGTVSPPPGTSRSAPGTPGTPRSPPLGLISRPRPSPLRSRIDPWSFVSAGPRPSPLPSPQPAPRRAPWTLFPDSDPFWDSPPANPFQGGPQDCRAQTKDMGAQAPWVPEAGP

CDK5/p25 = CDK5/p25 (Homo sapiens (Human), UniProt Q00535); assay: Life Technologies Z'-Lyte kinase assay, CDK5/p25; assay type: biochemical; conditions: read-out: Calculated IC50, CDK5/p25
CDK5/p25, sequence (Q00535 whole entry): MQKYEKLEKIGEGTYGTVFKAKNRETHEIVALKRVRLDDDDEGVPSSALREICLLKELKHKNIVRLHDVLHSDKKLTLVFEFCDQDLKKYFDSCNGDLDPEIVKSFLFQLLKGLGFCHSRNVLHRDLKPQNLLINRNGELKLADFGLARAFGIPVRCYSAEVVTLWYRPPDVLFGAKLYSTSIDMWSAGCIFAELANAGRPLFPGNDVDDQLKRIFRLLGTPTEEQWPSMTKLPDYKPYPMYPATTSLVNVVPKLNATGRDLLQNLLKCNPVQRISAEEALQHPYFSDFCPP
CDK5/p25, sequence (Q15078 99-307 partner): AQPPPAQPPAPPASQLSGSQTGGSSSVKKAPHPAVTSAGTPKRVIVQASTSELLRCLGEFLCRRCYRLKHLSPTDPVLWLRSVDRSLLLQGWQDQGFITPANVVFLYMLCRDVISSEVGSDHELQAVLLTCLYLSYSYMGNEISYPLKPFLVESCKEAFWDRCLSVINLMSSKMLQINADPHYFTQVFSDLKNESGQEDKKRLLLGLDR

SMILES: CN1CC[C@H](c2c(O)cc(O)c3c(=O)cc(-c4ccccc4Cl)oc23)[C@H](O)C1 [Flavopiridol, flavopiridol, reference compound]
- IC50 (THP-1): < 500 nM
- IC50 (MNNG-HOS Cl#5): 500 to 5000 nM
- IC50 (MV4-11): < 500 nM
- IC50 (SKBR3): < 500 nM
- IC50 (MDA-MB231): < 500 nM
- EC50 [1]: < 200 nM
- IC50 (143B): 500 to 5000 nM
- IC50 (SK-ES): < 500 nM
- IC50 (T47D): > 5000 nM
- IC50 (RD-ES): < 500 nM
- IC50 (Hs863T): > 5000 nM
- IC50 (RS4-11): < 500 nM
- IC50 (Hs822T): > 5000 nM
- IC50 (hTERT-HME1): < 500 nM
- IC50 (SAOS): < 500 nM
- IC50 (HL60): < 500 nM
- RNAP II occupancy at the promoter proximal pause site (RNAP II occupancy): unaffected
- IC50 (A673): < 500 nM
- IC50 (MCF10A): < 500 nM
- IC50 (MCF7): 500 to 5000 nM

SMILES: CN(C/C=C/C(=O)Nc1ccc(C(=O)Nc2cccc(Nc3ncc(Cl)c(-c4c[nH]c5ccccc45)n3)c2)cc1)CCCNC(=O)NCCOCCOCCOCCNC(=O)CCCCC1SCC2NC(=O)NC21 (centres unmarked) [Formula I-49]
- Pull down of CDK7 from cellular lysates (CDK7): pulls down CDK7
- Interaction with CDK1, CDK2, CDK4, and CDK6 [2]: do not interact
- Interaction with cyclin K (cyclin K): did interact

SMILES: CN(C)C/C=C/C(=O)Nc1ccc(C(=O)Nc2cccc(Nc3ncc(C#N)c(-c4c[nH]c5ccccc45)n3)c2)cc1 [Formula I-53, (E)-N-(3-(5-cyano-4-(1H-indol-3-yl)pyrimidin-2-ylamino)phenyl)-4-(4-(dimethylamino)but-2-enamido)benzamide]
- IC50 (Jurkat): < 100 nM
- IC50 (MLK3): < 100 nM
- IC50 (CDK5/p25): 100 to 1000 nM
